Consider five molecules from patent publication US20230295197A1, “STAT5 and STAT6 Degraders and Uses Thereof” (REGENTS OF THE UNIVERSITY OF MICHICAN, priority 2022, published 2023).

Where two headings read alike, the source gives them in different places.

The target of one experiment is T1, STAT6 (Homo sapiens, UniProt P42226).
T1 construct: endogenous in cells; host or cells: MOLM-16, KU-812, SKNO1, MB231, L1236
T1 sequence (P42226 1-847): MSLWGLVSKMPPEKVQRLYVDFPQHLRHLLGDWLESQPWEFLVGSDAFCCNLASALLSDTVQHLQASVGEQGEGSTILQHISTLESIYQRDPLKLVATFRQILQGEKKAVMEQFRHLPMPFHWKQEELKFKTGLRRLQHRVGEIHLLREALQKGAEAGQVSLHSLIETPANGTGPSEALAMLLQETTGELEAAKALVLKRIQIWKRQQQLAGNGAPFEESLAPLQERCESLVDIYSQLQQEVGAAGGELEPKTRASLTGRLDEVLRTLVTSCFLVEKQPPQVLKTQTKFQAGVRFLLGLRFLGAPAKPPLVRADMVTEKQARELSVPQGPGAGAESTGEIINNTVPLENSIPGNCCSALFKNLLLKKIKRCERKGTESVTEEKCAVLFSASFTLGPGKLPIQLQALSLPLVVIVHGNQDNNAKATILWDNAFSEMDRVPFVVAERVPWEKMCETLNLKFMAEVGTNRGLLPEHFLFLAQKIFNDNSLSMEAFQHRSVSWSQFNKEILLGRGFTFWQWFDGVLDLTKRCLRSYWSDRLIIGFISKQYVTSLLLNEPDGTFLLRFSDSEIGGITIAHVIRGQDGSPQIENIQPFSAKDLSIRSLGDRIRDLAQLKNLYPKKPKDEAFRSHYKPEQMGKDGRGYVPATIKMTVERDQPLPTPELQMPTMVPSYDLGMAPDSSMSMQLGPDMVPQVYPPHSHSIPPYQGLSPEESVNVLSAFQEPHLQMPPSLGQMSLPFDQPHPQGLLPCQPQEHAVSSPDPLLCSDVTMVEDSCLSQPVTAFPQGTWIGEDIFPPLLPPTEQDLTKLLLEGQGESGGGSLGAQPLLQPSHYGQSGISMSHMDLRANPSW
Description: Immunoblotting (Western blot) analysis of STAT6 degradation efficiency of degraders in treated cells. It counts as cell-based. Summed up: (§1)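 Cells (~1 million per point) treated with compounds at indicated concentrations and times, lysed in RIPA with protease/phosphatase inhibitors; 20-40 μg protein run on SDS-PAGE and blotted to PVDF. STAT6 or STAT5 rabbit mAbs with GAPDH loading control, IRDye secondaries; near-infrared fluorescence scan, band intensity quantified.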
In general terms: Immunoblotting shows a protein as a band on a membrane.

A further experiment has as its system STAT5. Kind of experiment: Immunoblotting (Western blot) analysis of STAT5 degradation efficiency of degraders in treated cells. The format is cell-based. Summed up: as §1
[1] abbreviates: MOLM-16 cells, numeric bound, read-out: DC50 S6 MOLM-16.
Setting [2] is: MOLM-16 cells, numeric bound, read-out: DC50 S5 MOLM-16.
[3] abbreviates: SKNO1 cells, read-out: DC50 S5 SKNO1.
The mark [4] stands for this setting: KU-812 cells, read-out: DC50 S5 KU-812.
Where [5] appears, read: MOLM-16 cells, class symbols, read-out: DC50 S5 MOLM-16.

Consider `CC(C)(C)[C@H](NC(=O)c1cc2cc(C(F)(F)P(=O)(O)O)ccc2s1)C(=O)N1CCC[C@H]1C(=O)N(CCCCCCCC#Cc1cccc2c1CN(C1CCC(=O)NC1=O)C2=O)c1ccc(-c2nccs2)cc1` (stereo partly drawn) [Compound 670, ((2-(((2S)-1-((2S)-2-((9-(2-(2,6-dioxopiperidin-3-yl)-1-oxoisoindolin-4-yl)non-8-yn-1-yl)(4-(thiazol-2-yl)phenyl)carbamoyl)pyrrolidin-1-yl)-3,3-dimethyl-1-oxobutan-2-yl)carbamoyl)benzo[b]thiophen-5-yl)difluoromethyl)phosphonic acid], for which the DC50 (commonly the midpoint of the concentration-degradation curve) on STAT6 (setting [1]) is above 300 nM; with STAT5 (setting [2]), above 300 nM; in the experiment with STAT5 (setting [3]), above 10000 nM.
As to `CN(C(=O)[C@@H]1C[C@@H](OCC(=O)NCCCCCCCCCC#Cc2cccc3c2CN(C2CCC(=O)NC2=O)C3=O)CN1C(=O)[C@@H](NC(=O)c1cc2cc(C(F)(F)P(=O)(O)O)ccc2s1)C(C)(C)C)c1ccc(Br)cc1` (stereo partly drawn) [Compound 415, ((2-(((2S)-1-((2S,4R)-2-((4-bromophenyl)(methyl)carbamoyl)-4-(2-((11-(2-(2,6-dioxopiperidin-3-yl)-1-oxoisoindolin-4-yl)undec-10-yn-1-yl)amino)-2-oxoethoxy)pyrrolidin-1-yl)-3,3-dimethyl-1-oxobutan-2-yl)carbamoyl)benzo[b]thiophen-5-yl)difluoromethyl)phosphonic acid], the 50% degradation concentration (DC50) was above 10000 nM at STAT6 (L1236 cells, read-out: DC50 S6 L1236); above 10000 nM on STAT6 (MB231 cells, read-out: DC50 S6 MB231); above 10000 nM with STAT5 (setting [3]).
Consider `CN(CCCC#Cc1cccc2c1CN(C1CCC(=O)NC1=O)C2=O)C(=O)CCN(C(=O)[C@@H]1CCCN1C(=O)[C@@H](NC(=O)c1cc2cc(C(F)(F)P(=O)(O)O)ccc2s1)C(C)(C)C)c1ccc(-c2nccs2)cc1` (stereo partly drawn) [Compound 681, ((2-(((2S)-1-((2S)-2-((3-((5-(2-(2,6-Dioxopiperidin-3-yl)-1-oxoisoindolin-4-yl)pent-4-yn-1-yl)(methyl)amino)-3-oxopropyl)(4-(thiazol-2-yl)phenyl)carbamoyl)pyrrolidin-1-yl)-3,3-dimethyl-1-oxobutan-2-yl)carbamoyl)benzo[b]thiophen-5-yl)difluoromethyl)phosphonic acid], for which the half-maximal degradation concentration (DC50) is above 10000 nM at STAT6 (KU-812 cells, read-out: DC50 S6 KU-812); above 10000 nM at STAT6 (MOLM-16 cells, class symbols, read-out: DC50 S6 MOLM-16); above 10000 nM at STAT6 (SKNO1 cells, read-out: DC50 S6 SKNO1); 100 to 1000 nM with STAT5 (setting [4]); below 100 nM in the experiment on STAT5 (setting [5]); 100 to 1000 nM in the experiment with STAT5 (setting [3]).
As for `CN(CCCC#Cc1cccc2c1CN(C1CCC(=O)NC1=O)C2=O)C(=O)CCN(C(=O)[C@@H]1CCCN1C(=O)[C@@H](NC(=O)c1cc2cc(C(F)(F)P(=O)(O)O)ccc2s1)C(C)(C)C)c1ccc(Br)cc1` (stereo partly drawn) [Compound 665, ((2-(((2S)-1-((2S)-2-((4-bromophenyl)(3-((5-(2-(2,6-dioxopiperidin-3-yl)-1-oxoisoindolin-4-yl)pent-4-yn-1-yl)(methyl)amino)-3-oxopropyl)carbamoyl)pyrrolidin-1-yl)-3,3-dimethyl-1-oxobutan-2-yl)carbamoyl)benzo[b]thiophen-5-yl)difluoromethyl)phosphonic acid], the DC50 on STAT6 (setting [1]) was above 300 nM; in the experiment with STAT5 (setting [4]), 100 to 1000 nM; in the experiment on STAT5 (setting [5]), below 100 nM; in the experiment on STAT5 (setting [3]), 100 to 1000 nM.
With `Cc1ncsc1-c1ccc([C@H](CC(=O)NCCCCCCCC(=O)N[C@@H]2C[C@@H](C(=O)Nc3ncc(-c4ccccc4)s3)N(C(=O)[C@@H](NC(=O)c3cc4cc(C(F)(F)P(=O)(O)O)ccc4s3)C(C)(C)C)C2)NC(=O)[C@@H]2C[C@@H](O)CN2C(=O)[C@@H](NC(=O)C2(F)CC2)C(C)(C)C)cc1` [Compound 577, (difluoro(2-(((S)-1-((2S,4R)-4-(8-((S)-3-((2S,4R)-1-((S)-2-(1-fluorocyclopropane-1-carboxamido)-3,3-dimethylbutanoyl)-4-hydroxypyrrolidine-2-carboxamido)-3-(4-(4-methylthiazol-5-yl)phenyl)propanamido)octanamido)-2-((5-phenylthiazol-2-yl)carbamoyl)pyrrolidin-1-yl)-3,3-dimethyl-1-oxobutan-2-yl)carbamoyl)benzo[b]thiophen-5-yl)methyl)phosphonic acid], the DC50 on STAT6 (setting [1]) and in the experiment with STAT5 (setting [2]) was above 300 nM each time.
